In patent US11458189B2, “Cytoprotective drugs” (BALMES TRANSPLANTATION, priority 2017, dated 2022):
Starred links: 1 amine or outer side, 2 acyl side, 3 side chain; linkers in the order of their positions; H or OH if unused. Positions of bridges follow the written chain, without caps; N, C: chain ends. Non-standard residues stand in square brackets, D forms with d. Residues, ends and D or L forms follow the SMILES beside them. ξ: configuration not given here. *: point of attachment. pTerphenylCO(4''-OnC5H11) = CCCCCOc1ccc(-c2ccc(-c3ccc(C(=O)*)cc3)cc2)cc1; Orn(4R-OH,5R-OH) = O=C([C@H](C[C@@H](O)[C@@H](O)N[*:3])N[*:1])[*:2]; hTyr(3S-OH,4S-OH) = N[C@H](C(=O)O)[C@H](O)[C@@H](O)c1ccc(O)cc1; Pro(3S-OH,4S-Me) = C[C@H]1CN[C@H](C(=O)O)[C@H]1O; ξPro(4R-OH) = O=C(O)C1C[C@@H](O)CN1

Tested on: Bovine Brain Microvascular Endothelial Cells (BBMEC)
Test: Oxygen and glucose deprivation followed by replenishment, cell survival (calcein AM), BBMEC
Type: cell-based
Experimental: Anidulafungin and micafungin were tested on Human Renal Glomerular Endothelial Cells (HRGEC, Innoprot P10665), on Human Renal Proximal Tubular Epithelial Cells (HRPTEpiC, Innoprot P10662), on Human Astrocytes (HA, caltag SC-1800), on Human Cardiac Microvascular Endothelial Cells (HCMEC, Caltag SC-6000), on Human Hepatic Sinusoidal Endothelial Cells (HHSEC, Caltag SC-5000), on Rat Primary Kidney Glomerular Endothelial cells (Cellbiologics, RN-6014G) and on Bovine Brain Microvascular Endothelial Cells (BBMEC, Caltag SC-B100).
In a first phase, these isolated, purified and cryopreserved cells are thawed and multiplied according to the supplier's recommendations in T75 or T175 flasks pre-coated with 2 μg of fibronectin/[…] (CORNING) for HRGEC, HCMEC, HHSEC and BBMEC, or 2 μg poly-L-lysin/cm^2 (Caltag SC-0403) for HRPTEpiC and HA, or 15 mL/flask 175 cm^2 gelatin-based solution (Cellbiologics) in the presence of endothelial cell supplemented growth medium ECM (P60104, INNOPROT, Caltag, SC-1001) for HRGEC, HCMEC, HHSEC, RPKGEC or BBMEC, or astrocyte cell supplemented growth medium AM (Caltag SC-1801) for HA or epithelial cell supplemented growth medium EpiCM (P60106, INNOPROT) for HRPTEpiC, at 37° C. under 5% CO2 and saturated humidity until their confluency. They are then harvested by trypsinization according to the method described by the supplier for exactly 5 minutes and then reseeded in new flasks a maximum of three times.
To carry out the oxygen and glucose deprivation test followed by their replenishment, the cells will be seeded in 96-well black plates with transparent flat bottom (GREINER). Once a sufficient number of cells has been obtained to allow seeding of 2000 to 15000 cells per well of 96-well plates depending on the cell type, the cells are seeded in these 96-well plates previously coated with an extracellular matrix as listed above for the flasks. The cells are cultured for 5 to 8 days according to the cell type, in the presence of the same growth medium as in the flask as described above except for HRGEC and HRPTEpiC for which DMEM (DUTSCHER) with 1 g/L of supplemented glucose is used, at 37° C. under 5% CO2 and saturated humidity to obtain confluency.
On the first day of oxygen and glucose deprivation, (5th, 6th, 7th or 8th day of culture), the culture conditions are drastically changed. The medium of all plates is removed and replaced by DMEM (DUTSCHER) medium without glucose and supplemented only with 1% penicillin-streptomycin (DUTSCHER). Anidulafungin or micafungin dissolved in dimethyl sulfoxide (DMSO) is then added to each well at the desired concentration, resulting in a maximum of 1% DMSO, and the plates are placed under hypoxia at <1% 02 and 5% CO2 at 37° C. for 24 hours of culture. Each compound was tested in a concentration range.
After 24 hours, the growth medium is changed and replaced by a richer medium, DMEM (DUTSCHER) at 1 g/L glucose and 2% FBS (INNOPROT) and 1% penicillin-streptomycin (DUTSCHER). These media will have been pre-equilibrated at 37° C. in advance. The cells are then returned to culture at 37° C. under 20% 02 and 5% CO2 for 22h.
After 22 hours of reoxygenation, the potential protective effect of anidulafungin or micafungin is measured by a cell viability test using calcein AM (CORNING), which is a dye substrate. The calcein AM can easily cross the cell membrane of the viable cells. The AM ester groups mask the part of the molecule that chelates calcium. Once inside the cells, the (non-fluorescent) calcein AM is hydrolyzed to (fluorescent) calcein by endogenous esterases. The resulting calcein molecule binds to calcium inside the cell and remains trapped inside the cell. These molecules emit strong green fluorescence when subjected to […] of a particular wavelength (495 nm). Since dead cells lack esterase activity, only living cells are labelled.
This cell viability test is performed in two steps. […]

[1] = [Anidulafungin] log μM 0.1760913
[2] = [Anidulafungin] log μM −0.1249387
[3] = [Anidulafungin] log μM −0.30103
[4] = [Anidulafungin] log μM −0.5228788

SMILES: CCCCCOc1ccc(-c2ccc(-c3ccc(C(=O)N[C@H]4C[C@@H](O)[C@@H](O)NC(=O)[C@@H]5[C@@H](O)[C@@H](C)CN5C(=O)[C@H]([C@@H](C)O)NC(=O)[C@H]([C@H](O)[C@@H](O)c5ccc(O)cc5)NC(=O)C5C[C@@H](O)CN5C(=O)[C@H]([C@@H](C)O)NC4=O)cc3)cc2)cc1 (stereo partly drawn) [Anidulafungin] ({pTerphenylCO(4''-OnC5H11)}-[Orn(4R-OH,5R-OH)]T[ξPro(4R-OH)][hTyr(3S-OH,4S-OH)]T[Pro(3S-OH,4S-Me)]; lactam 1-C)
- Globalfluo assay 1 ([Anidulafungin] log μM 0): 941644 arbitrary units
- Globalfluo assay 2 ([Anidulafungin] log μM 0): 1153883 arbitrary units
- Globalfluo assay 3 ([Anidulafungin] log μM 0): 1374585 arbitrary units
- Mean globalfluo ([Anidulafungin] log μM 0): 1156704 arbitrary units
- Survival rate (%) ([Anidulafungin] log μM 0): 30%
- Globalfluo assay 1 [1]: 2348228 arbitrary units
- Globalfluo assay 2 [1]: 1617378 arbitrary units
- Globalfluo assay 3 [1]: 1887981 arbitrary units
- Mean globalfluo [1]: 1951196 arbitrary units
- Survival rate (%) [1]: 77%
- Globalfluo assay 1 ([Anidulafungin] log μM 0.30103): 2455048 arbitrary units
- Globalfluo assay 2 ([Anidulafungin] log μM 0.30103): 2409886 arbitrary units
- Globalfluo assay 3 ([Anidulafungin] log μM 0.30103): 4507112 arbitrary units
- Mean globalfluo ([Anidulafungin] log μM 0.30103): 3124015 arbitrary units
- Survival rate (%) ([Anidulafungin] log μM 0.30103): 145%
- Globalfluo assay 1 ([Anidulafungin] log μM 0.60206): 4710709 arbitrary units
- Globalfluo assay 2 ([Anidulafungin] log μM 0.60206): 5014887 arbitrary units
- Globalfluo assay 3 ([Anidulafungin] log μM 0.60206): 4901610 arbitrary units
- Mean globalfluo ([Anidulafungin] log μM 0.60206): 4875735 arbitrary units
- Survival rate (%) ([Anidulafungin] log μM 0.60206): 248%
- Globalfluo assay 1 [2]: 1165160 arbitrary units
- Globalfluo assay 2 [2]: 919370 arbitrary units
- Globalfluo assay 3 [2]: 944308 arbitrary units
- Mean globalfluo [2]: 1009613 arbitrary units
- Survival rate (%) [2]: 22%
- Globalfluo assay 1 [3]: 744687 arbitrary units
- Globalfluo assay 2 [3]: 1045135 arbitrary units
- Globalfluo assay 3 [3]: 678965 arbitrary units
- Mean globalfluo [3]: 822929 arbitrary units
- Survival rate (%) [3]: 11%
- Globalfluo assay 1 [4]: 800327 arbitrary units
- Globalfluo assay 2 [4]: 708910 arbitrary units
- Globalfluo assay 3 [4]: 845212 arbitrary units
- Mean globalfluo [4]: 784816 arbitrary units
- Survival rate (%) [4]: 8%
- Globalfluo assay 1 ([Anidulafungin] log μM −1): 649447 arbitrary units
- Globalfluo assay 2 ([Anidulafungin] log μM −1): 1235676 arbitrary units
- Globalfluo assay 3 ([Anidulafungin] log μM −1): 807779 arbitrary units
- Mean globalfluo ([Anidulafungin] log μM −1): 897634 arbitrary units
- Survival rate (%) ([Anidulafungin] log μM −1): 15%
- Globalfluo assay 1 ([Anidulafungin] log μM −2): 664396 arbitrary units
- Globalfluo assay 2 ([Anidulafungin] log μM −2): 532817 arbitrary units
- Globalfluo assay 3 ([Anidulafungin] log μM −2): 541230 arbitrary units
- Mean globalfluo ([Anidulafungin] log μM −2): 579481 arbitrary units
- Survival rate (%) ([Anidulafungin] log μM −2): −4%
